Measured values: the supplement of paper PMC10627819

What was measured:
[1] = system: S. aureus Newman; experiment: Bliss interaction score (quartile over a dose matrix) (fitness difference); higher = more antagonism (negative = synergy)
Outline: (§1)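 Each OD595 reading at entry into stationary phase was scaled to the robust mean of the untreated wells on its plate, with a ceiling of 1. These ratios define fitness, and single-drug fitness was inferred from combinations. The Bliss score compares observed fitness with the product-based expectation and is reported as quartiles across all replicate types, technical, biological and donor/recipient.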

[2] = system: S. aureus DSM 20231; experiment: as above
Outline: as §1

[3] = system: S. pneumoniae D39V; experiment: as above
Outline: as §1

[4] = system: B. subtilis 168; experiment: as above
Outline: as §1

[5] = system: S. aureus Newman; experiment: fitness (endpoint OD595 vs no drug) (fraction); higher = more growth
Outline: (§2)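 In 384-well plates at 37 °C, cultures began at OD595 0.01 in 30 µl, with 55 µl used for S. pneumoniae. OD595 readings every 30 min for 14 h were corrected by the first reading. Fitness divides the stationary-phase transition optical density by the robust mean of no-drug control wells. The result is capped at 1.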

[6] = system: S. aureus DSM 20231; experiment: as above
Outline: as §2

[7] = system: S. pneumoniae D39V; experiment: as above
Outline: as §2

[8] = system: B. subtilis 168; experiment: as above
Outline: as §2
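Throughout, for Bliss interaction score (quartile over a dose matrix): first quartile when negative (synergy) and third quartile when positive (antagonism).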
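Throughout, for fitness (endpoint OD595 vs no drug): OD595 on entry to stationary phase over no-drug wells; at most 1.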

CCC[C@@H]1C[C@@H](C(=O)N[C@@H]([C@H]2O[C@H](SC)[C@H](O)[C@@H](O)[C@H]2O)[C@H](C)Cl)N(C)C1 [Clindamycin] + Cc1onc(-c2ccccc2)c1C(=O)N[C@@H]1C(=O)N2[C@@H]1SC(C)(C)[C@@H]2C(=O)O [Oxacillin]
Details | Bliss interaction score
[1] | 0.09
[2] | 0.0814
[3] | 0.105
[4] | 0.0308

Details | fitness
[5], first compound 0.0312 µg/mL, partner 0.0156 µg/mL | 0.71
[5], first compound 0.0312 µg/mL, partner 0.0312 µg/mL | 0.673
[5], first compound 0.0312 µg/mL, partner 0.0625 µg/mL | 0.557
[5], first compound 0.0625 µg/mL, partner 0.0625 µg/mL | 0.31
[5], first compound 0.125 µg/mL, partner 0.0156 µg/mL | 0.189
[5], first compound 0.125 µg/mL, partner 0.0312 µg/mL | 0.105
[5], first compound 0.125 µg/mL, partner 0.0625 µg/mL | 0.0973
[6], first compound 0.0312 µg/mL, partner 0.0312 µg/mL | 0.486
[6], first compound 0.0312 µg/mL, partner 0.0625 µg/mL | 0.355
[6], first compound 0.0625 µg/mL, partner 0.0156 µg/mL | 0.0861
[6], first compound 0.0625 µg/mL, partner 0.0312 µg/mL | 0.0909
[6], first compound 0.0625 µg/mL, partner 0.0625 µg/mL | 0.0694
[6], first compound 0.125 µg/mL, partner 0.0156 µg/mL | 0.0621
[6], first compound 0.125 µg/mL, partner 0.0312 µg/mL | 0.0625
[6], first compound 0.125 µg/mL, partner 0.0625 µg/mL | 0.0779
[7], first compound 0.0125 µg/mL, partner 0.005 µg/mL | 0.754
[7], first compound 0.0125 µg/mL, partner 0.01 µg/mL | 0.786
[7], first compound 0.0125 µg/mL, partner 0.02 µg/mL | 0.804
[7], first compound 0.015 µg/mL, partner 0.01 µg/mL | 0.854
[7], first compound 0.015 µg/mL, partner 0.02 µg/mL | 0.817
[7], first compound 0.015 µg/mL, partner 0.04 µg/mL | 0.546
[7], first compound 0.025 µg/mL, partner 0.005 µg/mL | 0.561
[7], first compound 0.025 µg/mL, partner 0.01 µg/mL | 0.521
[7], first compound 0.025 µg/mL, partner 0.02 µg/mL | 0.524
[7], first compound 0.03 µg/mL, partner 0.01 µg/mL | 0.7
[7], first compound 0.03 µg/mL, partner 0.02 µg/mL | 0.677
[7], first compound 0.03 µg/mL, partner 0.04 µg/mL | 0.423
[7], first compound 0.05 µg/mL, partner 0.005 µg/mL | 0.278
[7], first compound 0.05 µg/mL, partner 0.01 µg/mL | 0.291
[7], first compound 0.05 µg/mL, partner 0.02 µg/mL | 0.29
[8], first compound 0.0625 µg/mL, partner 0.002 µg/mL | 0.546
[8], first compound 0.0625 µg/mL, partner 0.004 µg/mL | 0.531
[8], first compound 0.0625 µg/mL, partner 0.008 µg/mL | 0.524
[8], first compound 0.125 µg/mL, partner 0.002 µg/mL | 0.396
[8], first compound 0.125 µg/mL, partner 0.004 µg/mL | 0.367
[8], first compound 0.125 µg/mL, partner 0.008 µg/mL | 0.367
[8], first compound 0.25 µg/mL, partner 0.002 µg/mL | 0.382
[8], first compound 0.25 µg/mL, partner 0.004 µg/mL | 0.372
[8], first compound 0.25 µg/mL, partner 0.008 µg/mL | 0.361

fitness, [8], one replicate
Details | first compound 0.0039 µg/mL | first compound 0.0078 µg/mL | first compound 0.0156 µg/mL | first compound 0.0625 µg/mL | first compound 0.125 µg/mL | first compound 0.25 µg/mL
partner 0.0078 µg/mL | 0.953 | 0.903 | 0.828 | – | – | –
partner 0.0155 µg/mL | 0.963 | 0.897 | 0.805 | – | – | –
partner 0.031 µg/mL | 0.947 | 0.865 | 0.822 | – | – | –
partner 0.075 µg/mL | – | – | – | 0.237 | 0.0774 | 0.0582
partner 0.15 µg/mL | – | – | – | 0.063 | 0.066 | 0.0705
partner 0.3 µg/mL | – | – | – | 0.0546 | 0.0304 | 0.0517

COc1c(N2C[C@@H]3CCCN[C@@H]3C2)c(F)cc2c(=O)c(C(=O)O)cn(C3CC3)c12 [Moxifloxacin] + CN1C2=CC=CC=C2N=C3C1=CC=CC3=O [Pyocyanin]
Details | Bliss interaction score
[1] | -0.0614
[2] | 0.0656
[3] | 0.0702
[4] | -0.0123

fitness
Details | partner 0.325 µg/mL | partner 0.65 µg/mL | partner 1.25 µg/mL | partner 1.3 µg/mL | partner 2.5 µg/mL | partner 5 µg/mL
[5], first compound 0.0075 µg/mL | – | – | 0.679 | – | 0.605 | 0.372
[5], first compound 0.015 µg/mL | – | – | 0.51 | – | 0.434 | 0.221
[5], first compound 0.03 µg/mL | – | – | 0.157 | – | 0.138 | 0.0727
[6], first compound 0.0075 µg/mL | – | – | 0.836 | – | 0.755 | 0.665
[6], first compound 0.015 µg/mL | – | – | 0.743 | – | 0.711 | 0.569
[6], first compound 0.03 µg/mL | – | – | 0.678 | – | 0.706 | 0.567
[7], first compound 0.005 µg/mL | ≥ 1 | 0.988 | – | 0.797 | – | –
[7], first compound 0.01 µg/mL | ≥ 1 | 0.98 | – | 0.828 | – | –
[7], first compound 0.02 µg/mL | ≥ 1 | 0.959 | – | 0.788 | – | –
[8], first compound 0.0312 µg/mL | – | – | 0.0609 | – | 0.0599 | 0.0529
[8], first compound 0.0625 µg/mL | – | – | 0.0538 | – | 0.0598 | 0.057
[8], first compound 0.125 µg/mL | – | – | 0.0466 | – | 0.047 | 0.0468
[8], first compound 2 µg/mL | – | – | 0.0183 | – | 0.0257 | 0.0378
[8], first compound 4 µg/mL | – | – | 0.0241 | – | 0.0221 | 0.0304
[8], first compound 8 µg/mL | – | – | 0.012 | – | 0.0127 | 0.0179

one replicate
Details | fitness
[6], first compound 0.06 µg/mL, partner 1.25 µg/mL | 0.671
[6], first compound 0.06 µg/mL, partner 2.5 µg/mL | 0.658
[6], first compound 0.06 µg/mL, partner 5 µg/mL | 0.651
[6], first compound 0.12 µg/mL, partner 1.25 µg/mL | 0.493
[6], first compound 0.12 µg/mL, partner 2.5 µg/mL | 0.514
[6], first compound 0.12 µg/mL, partner 5 µg/mL | 0.47
[7], first compound 0.0037 µg/mL, partner 0.325 µg/mL | 0.925
[7], first compound 0.0037 µg/mL, partner 0.65 µg/mL | 0.871
[7], first compound 0.0075 µg/mL, partner 0.325 µg/mL | 0.948
[7], first compound 0.0075 µg/mL, partner 0.65 µg/mL | 0.883
[7], first compound 0.015 µg/mL, partner 0.325 µg/mL | 0.911
[7], first compound 0.015 µg/mL, partner 0.65 µg/mL | 0.91

O=C(O[C@@H]1Cc2c(O)cc(O)cc2O[C@@H]1c1cc(O)c(O)c(O)c1)c1cc(O)c(O)c(O)c1 [EGCG] + C[C@@H]1O[C@@H]1P(=O)(O)O [Fosfomycin]
Details | Bliss interaction score
[1] | 0.101
[2] | -0.113
[3] | 0.0738
[4] | 0.144

fitness
Details | first compound 6.25 µg/mL | first compound 12.5 µg/mL | first compound 25 µg/mL | first compound 50 µg/mL
[5], partner 0.781 µg/mL | – | 0.494 | 0.573 | 0.548
[5], partner 1.562 µg/mL | – | 0.542 | 0.502 | 0.48
[5], partner 3.124 µg/mL | – | 0.251 | 0.219 | 0.185
[6], partner 0.781 µg/mL | – | 0.583 | 0.541 | 0.402
[6], partner 1.562 µg/mL | – | 0.459 | 0.465 | –
[6], partner 3.124 µg/mL | – | 0.416 | 0.399 | 0.23
[7], partner 1.25 µg/mL | – | 0.965 | 0.913 | 0.969
[7], partner 2.5 µg/mL | – | 0.948 | 0.936 | 0.856
[7], partner 5 µg/mL | – | 0.774 | 0.796 | 0.854
[8], partner 1.562 µg/mL | 0.682 | – | – | –
[8], partner 3.124 µg/mL | 0.562 | – | 0.396 | –
[8], partner 6.248 µg/mL | 0.448 | 0.439 | 0.25 | –
